Results from ChEMBL document CHEMBL6114969, “Ultra-short lipopeptides containing d-amino acid exhibiting excellent stability and antibacterial activity against gram-positive bacteria” (Eur J Med Chem, 2025).
Values after ≈ are worked out from the molar mass of the structure shown.

Key:
Staphylococcus aureus [1] = experiment: Antibacterial activity against methicillin-resistant Staphylococcus aureus ATCC 33591 assessed as fold change in MIC incubated for 18 to 24 hrs in presence of 10 percent mouse serum by broth microdilution method; type: functional; conditions: time 18-24 hrs
Staphylococcus aureus [2] = experiment: Antibacterial activity against Staphylococcus aureus ATCC 25923 incubated for 18 to 24 hrs by broth microdilution method; type: functional; conditions: time 18-24 hrs
Staphylococcus aureus [3] = experiment: Antibacterial activity against methicillin-resistant Staphylococcus aureus ATCC 33591 assessed as fold change in MIC incubated for 18 to 24 hrs in presence of MgCl2 by broth microdilution method; type: functional; conditions: time 18-24 hrs
Staphylococcus aureus [4] = experiment: Antibacterial activity against methicillin-resistant Staphylococcus aureus ATCC 33591 incubated for 18 to 24 hrs in presence of 1 mg/ml of trypsin by broth microdilution method; type: functional; conditions: time 18-24 hrs
[5] = tested on: Staphylococcus epidermidis; experiment: Antibacterial activity against Staphylococcus epidermidis ATCC 12228 incubated for 18 to 24 hrs by broth microdilution method; type: functional; conditions: time 18-24 hrs
Staphylococcus aureus [6] = experiment: Antibacterial activity against methicillin-resistant Staphylococcus aureus ATCC 33591 incubated for 18 to 24 hrs in presence of 0.5 mg/ml of pepsin by broth microdilution method; type: functional; conditions: time 18-24 hrs
Staphylococcus aureus [7] = experiment: Antibacterial activity against methicillin-resistant Staphylococcus aureus ATCC 33591 incubated for 18 to 24 hrs in presence of 2 mg/ml of pepsin by broth microdilution method; type: functional; conditions: time 18-24 hrs
[8] = Retention time of compound by RP-HPLC analysis; type: physicochemical
Staphylococcus aureus [9] = experiment: Antibacterial activity against methicillin-resistant Staphylococcus aureus ATCC 33591 incubated for 18 to 24 hrs in presence of 0.5 mg/ml of chymotrypsin by broth microdilution method; type: functional; conditions: time 18-24 hrs
Staphylococcus aureus [10] = experiment: Antibacterial activity against methicillin-resistant Staphylococcus aureus ATCC 33591 incubated for 18 to 24 hrs in presence of 1 mg/ml of chymotrypsin by broth microdilution method; type: functional; conditions: time 18-24 hrs
Enterococcus faecalis = experiment: Antibacterial activity against Enterococcus faecalis ATCC 29212 incubated for 18 to 24 hrs by broth microdilution method; type: functional; conditions: time 18-24 hrs
Staphylococcus aureus [11] = experiment: Antibacterial activity against Staphylococcus aureus ATCC 29213 incubated for 18 to 24 hrs by broth microdilution method; type: functional; conditions: time 18-24 hrs
Staphylococcus aureus [12] = experiment: Antibacterial activity against methicillin-resistant Staphylococcus aureus ATCC 33591 incubated for 18 to 24 hrs in presence of 0.5 mg/ml of trypsin by broth microdilution method; type: functional; conditions: time 18-24 hrs
Staphylococcus aureus [13] = experiment: Antibacterial activity against methicillin-resistant Staphylococcus aureus ATCC 33591 incubated for 18 to 24 hrs by broth microdilution method; type: functional; conditions: time 18-24 hrs
[14] = Hemolytic activity in mouse Red blood cells incubated for 1 hr by absorbance based analysis; type: toxicity, cell-based; conditions: erythrocyte
Staphylococcus aureus [15] = experiment: Antibacterial activity against methicillin-resistant Staphylococcus aureus ATCC 33591 incubated for 18 to 24 hrs in presence of 2 mg/ml of chymotrypsin by broth microdilution method; type: functional; conditions: time 18-24 hrs
Staphylococcus aureus [16] = experiment: Antibacterial activity against methicillin-resistant Staphylococcus aureus ATCC 33591 incubated for 18 to 24 hrs in presence of 1 mg/ml of pepsin by broth microdilution method; type: functional; conditions: time 18-24 hrs
Staphylococcus aureus [17] = experiment: Antibacterial activity against methicillin-resistant Staphylococcus aureus ATCC 33591 assessed as fold change in MIC incubated for 18 to 24 hrs in presence of 10 percent FBS by broth microdilution method; type: functional; conditions: time 18-24 hrs
Staphylococcus aureus [18] = experiment: Antibacterial activity against methicillin-resistant Staphylococcus aureus ATCC 33591 incubated for 18 to 24 hrs in presence of 2 mg/ml of trypsin by broth microdilution method; type: functional; conditions: time 18-24 hrs
Staphylococcus aureus [19] = experiment: Antibacterial activity against methicillin-resistant Staphylococcus aureus ATCC 33591 assessed as fold change in MIC incubated for 18 to 24 hrs in presence of NaCl by broth microdilution method; type: functional; conditions: time 18-24 hrs

| Structure (SMILES) | fold change (FC) (Staphylococcus aureus [1]) | MIC (Staphylococcus aureus [2]) | fold change (FC) (Staphylococcus aureus [3]) | MIC (Staphylococcus aureus [4]) | MIC [5] | MIC (Staphylococcus aureus [6]) | MIC (Staphylococcus aureus [7]) | Retention_time [8] | MIC (Staphylococcus aureus [9]) | MIC (Staphylococcus aureus [10]) | MIC (Enterococcus faecalis) | MIC (Staphylococcus aureus [11]) | MIC (Staphylococcus aureus [12]) | MIC (Staphylococcus aureus [13]) | HC10 [14] | MIC (Staphylococcus aureus [15]) | MIC (Staphylococcus aureus [16]) | fold change (FC) (Staphylococcus aureus [17]) | MIC (Staphylococcus aureus [18]) | fold change (FC) (Staphylococcus aureus [19]) |
| --- | --- | --- | --- | --- | --- | --- | --- | --- | --- | --- | --- | --- | --- | --- | --- | --- | --- | --- | --- | --- |
| CCCCCCCCCCCC(=O)N[C@@H](CCCNC(=N)N)C(=O)N[C@H](CCCNC(=N)N)C(=O)N[C@@H](Cc1c[nH]c2ccccc12)C(=O)O | 4 | 4 µM (≈ 2.8 µg/mL) | <3 | 32 µM | 2 µM (≈ 1.4 µg/mL) | 64 µM | 64 µM | 18.997 min | 16 µM | 32 µM | 8 µM (≈ 5.59 µg/mL) | 4 µM (≈ 2.8 µg/mL) | 16 µM | 4 µM (≈ 2.8 µg/mL) | 128 µM | 32 µM | 64 µM | 8 | 32 µM | <3 |
| CN[C@H](CC(C)C)C(=O)N[C@H]1C(=O)N[C@@H](CC(N)=O)C(=O)N[C@H]2C(=O)N[C@H]3C(=O)N[C@H](C(=O)N[C@H](C(=O)O)c4cc(O)cc(O)c4-c4cc3ccc4O)[C@H](O)c3ccc(c(Cl)c3)Oc3cc2cc(c3O[C@@H]2O[C@H](CO)[C@@H](O)[C@H](O)[C@H]2O[C@H]2C[C@](C)(N)[C@H](O)[C@H](C)O2)Oc2ccc(cc2Cl)[C@H]1O [VANCOMYCIN] | – | ≤ 0.5 µM | – | – | 1 µM (≈ 1.45 µg/mL) | – | – | – | – | – | 2 µM (≈ 2.9 µg/mL) | ≤ 0.5 µM | – | ≤ 0.5 µM | – | – | – | – | – | – |
| CCCCCCCCCCCC(=O)N[C@H](CCCNC(=N)N)C(=O)N[C@@H](CCCNC(=N)N)C(=O)N[C@H](Cc1c[nH]c2ccccc12)C(=O)O | 4 | 4 µM (≈ 2.8 µg/mL) | <3 | 16 µM | 2 µM (≈ 1.4 µg/mL) | 4 µM | 8 µM | 19.092 min | 8 µM | 8 µM | 16 µM (≈ 11.2 µg/mL) | 4 µM (≈ 2.8 µg/mL) | 8 µM | 4 µM (≈ 2.8 µg/mL) | 128 µM | 8 µM | 8 µM | 8 | 32 µM | <3 |
| CCCCCCCCCCCC(=O)N[C@@H](CCCNC(=N)N)C(=O)N[C@H](CCCNC(=N)N)C(=O)N[C@H](Cc1c[nH]c2ccccc12)C(=O)O | 4 | 4 µM (≈ 2.8 µg/mL) | <3 | > 128 µM | 2 µM (≈ 1.4 µg/mL) | 4 µM | 16 µM | 19.303 min | 8 µM | 8 µM | 16 µM (≈ 11.2 µg/mL) | 4 µM (≈ 2.8 µg/mL) | 128 µM | 4 µM (≈ 2.8 µg/mL) | 64 µM | 32 µM | 8 µM | 8 | > 128 µM | <3 |
| CCCCCCCCCCCC(=O)N[C@@H](CCCNC(=N)N)C(=O)N[C@@H](CCCNC(=N)N)C(=O)N[C@H](Cc1c[nH]c2ccccc12)C(=O)O | 4 | 4 µM (≈ 2.8 µg/mL) | <3 | > 128 µM | 2 µM (≈ 1.4 µg/mL) | 16 µM | 128 µM | 18.476 min | > 128 µM | > 128 µM | 16 µM (≈ 11.2 µg/mL) | 4 µM (≈ 2.8 µg/mL) | > 128 µM | 4 µM (≈ 2.8 µg/mL) | 128 µM | > 128 µM | 128 µM | 8 | > 128 µM | <3 |
